Test [1] concerns parenchymal arterioles (PA). As to the kind of experiment: Pressurized arteriograph: vascular reactivity and structure of PA from female SHR. The test is classed as in vivo, rat. As to conditions: SHR-F-Rln-Axi vs SHR-F-Rln. The protocol:
A separate group of SHR-F was used to determine if relaxin crosses the BBB by treating with relaxin (4 μg/hr) for 14 days and measuring relaxin concentration in cerebrospinal fluid (CSF) and serum (SHR-F-Rln-CSF, n=4). For the osmotic pump implant, animals were anesthetized with 3% isoflurane and minipumps implanted subcutaneously in the back of the neck. All animals received post-surgical analgesia (buprenorphine, 50 μg/kg, s.c.). Relaxin infusion was continuous for 14 days until animals were euthanized for isolated vessel experiments and tissue collection.
After collecting trunk blood, the brain was quickly removed and placed in cold physiological salt solution (PSS). PA between the M1 and M2 region of the MCA territory and the MCA from the same animals were carefully isolated from WKY-F, SHR-F, and SHR-F-Rln groups and mounted on glass cannulas. PA were identified as branches off the MCA that penetrated into the brain tissue, as previously described (han, S. L., and Cipolla, M. J. (2011) Relaxin causes selective outward remodeling of brain parenchymal arterioles via activation of peroxisome proliferator-activated receptor-gamma. FASEB J 25, 3229-3239). […] The proximal cannula was connected to an in-line pressure transducer and a servo-null pressure control system (Living Systems Instrumentation, Burlington, Vt., USA) that allowed intravascular pressure to be maintained at a set pressure or changed at a variable rate. The distal cannula was closed during the experiment to avoid flow-mediated responses. Temperature and pH were continuously measured and maintained at 37.0±0.5° C. and 7.40±0.05, respectively. Measurements of inner diameter (ID) and wall thickness (WT) were made via video microscopy (Living Systems Instrumentation, Burlington, Vt.).
PA and MCA were equilibrated for 1 hour, after which myogenic activity was determined by stepwise increases in pressure from 40 to 100 mmHg for PA or 50 to 175 mmHg for MCA. ID and WT were measured at each pressure once stable. Endothelium-dependent dilation was studied by adding NS309 (10^−8-10^−5 M), an activator of small- and intermediate-conductance calcium-activated potassium channels (SKCa, IKCa). NS309 was washed out of the bath and a single concentration of the nitric oxide synthase (NOS) inhibitor L-nitro-n-arginine (L-NNA, 10^−4 M) added to the bath. Constriction to NOS inhibition was used as an additional indicator of endothelial function. In the presence of L-NNA, sodium nitroprusside (SNP, 10^−8-10^−5 M) was added to the bath to assess endothelium-independent vasodilation. To obtain structural measurements, ID and WT were recorded at pressures between 5 to 200 mmHg for PA or 5 to 175 mmHg for MCA in zero-calcium PSS containing ethylene glycol tetra-acetic acid (EGTA) and outer diameter (OD) and distensibility calculated.
Percent tone was calculated as percent decrease in ID from the passive diameter at each intravascular pressure: [1−(IDactive/IDpassive)]×100. Percent reactivity for vasodilators was calculated as ((IDdose−IDstart)/(IDpassive−IDstart))×100. Percent constriction for vasoconstrictor was calculated as (1−(IDdose/IDstart))×100. OD was calculated from measured ID and WT: ID+2WT. Distensibility at a given pressure was calculated as (IDpassive−IDoriginal)/(IDoriginal)×100, where IDoriginal is defined as passive inner diameter determined at lowest pressure (5 mmHg). Data from qPCR study were analyzed using the −2^ΔΔCT method, as described previously (Livak, K. J., and Schmittgen, T. D. (2001) Analysis of relative gene expression data using real-time quantitative PCR and the 2(−Delta Delta C(T)) Method. Methods 25, 402-408). Data were removed when the Ct values of technical replicates differed by more than 0.5.

Another test relates to PPARγ target genes. As to the kind of experiment: PPARγ target gene expression (real-time qPCR) in adipose tissue, pial arteries and PA, NP Sprague Dawley rats. As to conditions: GW9662 co-treatment. The class given is in vivo, rat. The source says: (§1) Animals and Treatment Groups: All procedures were approved by the Institutional Animal Care and Use Committee and conducted in accordance with the National Institutes of Health Guide for the Care and Use of Laboratory Animals. Female virgin NP Sprague Dawley rats (250-300 g, 14-16 weeks, Charles River, Canada) were used for all experiments and housed in the University of Vermont Animal Care Facility. Animals were randomly selected and grouped as untreated (N=4), treated with recombinant human relaxin-2 (relaxin, 4 μg/hr; N=14), relaxin plus a specific PPARγ inhibitor GW9662 (10 mg/kg daily in food; N=8), or vehicle (20 mM sodium acetate; N=14) for 10 days through osmotic minipumps (Alzet 2ML2, Durect Corp., Cupertino, Calif., USA). GW9662 treatment was started 1 day before and for the duration of relaxin treatment to ensure PPARγ was inhibited. Animals were anesthetized with 3% isoflurane and minipumps implanted subcutaneously in the back of the neck. All animals received post-surgical analgesic (buprenorphine, 50 μg/kg, s.c.). Relaxin infusion was continuous for 10 days until animals were euthanized for vessel experiments and tissue collection. The minipumps used were capable of delivering relaxin for 14 days and thus tissue collection was within this duration.
Determination of RXFP1 and PPARγ Target Gene Expression: MCA and PA from 4 untreated rats were collected to determine expression level of RXFP1, the primary relaxin receptor, using real-time qPCR methods. We also collected adipose tissue, pial arteries, and PA from vehicle, relaxin and relaxin+GW9662 groups (n=6 for each group) for determination of PPARγ target gene expression. All collected samples were stored in RNase inhibitor (1 unit/μl, RiboLock, Fermentas, Glen Burnie, Md., USA) at −80° C. for comparing expression of fatty acid translocase (FAT)/CD36 and liver X receptors-α (LXRα) for adipose tissue, and plasminogen activator inhibitor-1 (PAI-1) for vasculature. Standard techniques for real-time qPCR were performed by the Vermont Cancer Center DNA analysis facility at the University of Vermont, as described previously Cipolla et al. (2009) Stroke 40, 1451-1457. Briefly, RNA was extracted from tissues and concentration and integrity was determined by a NanoDrop ND-1000 Spectrophotometer (Wilmington, Del.) and an Agilent 2100 Bioanalyzer (Santa Clara, Calif., USA), respectively. Samples with low RNA quality were excluded. cDNA was then made by a SuperScript III Kit (Invitrogen, Carlsbad, Calif., USA). Real-time qPCR was set up as follows: 10 μL Universal PCR Master Mix (Applied Biosystems, Foster City, Calif., USA), 1 μL Assay on Demand (Applied Biosystems), 8 μL water, and 1 μL cDNA. β2-microglobulin (B2M, housekeeping control) and target genes were assessed using Assays on Demand from Applied Biosystems. […] Primers were designed across an exon-exon junction to avoid detecting genomic DNA. Thus, no DNase treatment of samples was necessary. All samples were run in duplicates using a 7900HT Sequence Detection System (Applied Biosystems). […]
Data Calculations and Statistical Analysis: Percent tone was calculated as percent decrease in ID from the passive diameter at each intravascular pressure: [1−(IDactive/IDpassive)]×100%. Outer diameter (OD) was calculated from measured ID and WT: ID+2WT. Cross-sectional area (CSA) of the wall was calculated as: [(OD/2)2−(ID/2)2]×π. Data from qPCR study were analyzed using the −2^ΔΔCT method, as described previously Livak et al. (2001) Methods 25, 402-408. […]

The subject of test [2] is parenchymal arterioles (PA). As to the kind of experiment: Pressurized arteriograph: vascular reactivity and structure of PA from relaxin-treated NP Sprague Dawley rats. The class given is in vivo, rat. The conditions noted are these: GW9662 10 mg/kg daily in food during relaxin infusion, 5 mmHg.
Source text: as §1
Vessel Preparation and Pressurized Arteriograph System: After collecting trunk blood, the brain was quickly removed and placed in cold physiological salt solution (PSS). In the first set of experiments, PA between the M1 and M2 region of the MCA territory and the MCA from the same animals were carefully isolated from vehicle- or relaxin-treated animals and mounted on glass cannulas in a dual-chambered arteriograph such that one PA and one MCA from each animal were studied simultaneously. PA were identified as branches off the MCA that penetrated into the brain tissue, as previously described (25). In the second set of experiments, PA from the same brain region as above were dissected from relaxin+GW9662-treated animal and compared to PA from vehicle- and relaxin-treated animals. MCA were not studied in this second set of animals because there was no effect of relaxin on that segment of the vasculature. The proximal cannulas were connected to an in-line pressure transducer and a servo-null pressure control system (Living Systems Instrumentation, Burlington, Vt., USA) that allowed intravascular pressure to be maintained at a set pressure or changed at a variable rate. The distal cannulas were closed during the experiment to avoid flow-mediated responses. Temperature and pH were continuously measured and maintained at 37.0±0.5° C. and 7.40±0.05, respectively. Measurements of inner diameter (ID) and wall thickness (WT) were made via video microscopy (Living Systems Instrumentation).
Vascular Reactivity and Structural Characteristics in PA and MCA: For the first set of experiments, PA and MCA were equilibrated for 1 hour at 25 mmHg, after which myogenic activity was determined by stepwise increases in pressure from 40 to 100 mmHg for PA or 50 to 175 mmHg for MCA. ID and WT were measured at each pressure once stable. Changes in ID and WT were measured in PA only in response to small- (SKCa) and intermediate- (IKCa) conductance calcium-activated potassium channels blockers, apamin (3×10^−7 M) and TRAM-34 (10^−6 M), respectively. PA are unique in that the contribution of endothelium-derived hyperpolarizing factors (EDHF) to tone is greater than most vessels Cipolla et al. (2009) Stroke 40, 1451-1457. Thus, inhibition of SKCa/IKCa channels, a critical component in the EDHF pathway, causes constriction in PA Cipolla et al. (2009) Stroke 40, 1451-1457. We therefore assessed the effect of relaxin on constriction of PA in response to SKCa/IKCa channel inhibition in order to assess this unique pathway. […]

Test [3] deals with parenchymal arterioles (PA). As to the kind of experiment: SKCa/IKCa channel blockers added to isolated pressurized PA. Also noted: species or system rat. As to conditions: apamin 3×10^−7 M, TRAM-34 10^−6 M in the bath. As for the experimental part:
Vascular Reactivity and Structural Characteristics in PA and MCA: For the first set of experiments, PA and MCA were equilibrated for 1 hour at 25 mmHg, after which myogenic activity was determined by stepwise increases in pressure from 40 to 100 mmHg for PA or 50 to 175 mmHg for MCA. ID and WT were measured at each pressure once stable. Changes in ID and WT were measured in PA only in response to small- (SKCa) and intermediate- (IKCa) conductance calcium-activated potassium channels blockers, apamin (3×10^−7 M) and TRAM-34 (10^−6 M), respectively. PA are unique in that the contribution of endothelium-derived hyperpolarizing factors (EDHF) to tone is greater than most vessels Cipolla et al. (2009) Stroke 40, 1451-1457. Thus, inhibition of SKCa/IKCa channels, a critical component in the EDHF pathway, causes constriction in PA Cipolla et al. (2009) Stroke 40, 1451-1457. We therefore assessed the effect of relaxin on constriction of PA in response to SKCa/IKCa channel inhibition in order to assess this unique pathway. To obtain structural measurements, ID and WT were recorded at pressures between 5 to 200 mmHg for PA or 5 to 175 mmHg for MCA after papaverine (10^−4 M) and diltiazem (10^−5 M) were added to the bath. For the second set of experiments in which animals were treated with relaxin+GW9662, passive structural measurements were made as described above.

On to `CNC(=O)c1ccccc1Sc1ccc2c(/C=C/c3ccccn3)n[nH]c2c1` [axitinib, reference compound], for which the “Relaxin-induced increased distensibility of PA” value in test [1] is “no effect”.
In the case of `O=C(Nc1ccccc1)c1cc([N+](=O)[O-])ccc1Cl` [GW9662, reference compound], the “Relaxin-induced change of CD36 gene expression in adipose tissue” value in the test on PPARγ target genes is listed as “normalized”. Moreover, the “Structural changes of PA induced by relaxin” value in test [2] is reported as “prevented”.
For the molecule `Clc1ccccc1C(c1ccccc1)(c1ccccc1)n1cccn1` [TRAM-34], the “Vasoconstriction of PA” value in test [3] is given as “greater vasoconstriction”.

For the origin of these results see patent publication US9393288B2, “Methods of treating diseases associated with PPARγ” (The University of Vermont and State Agricultural College, priority 2012, dated 2016).
